Assay results from PubChem BioAssay (NCI).
Converted amounts (≈) assume the structure as drawn.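 Growth conditions: 96-well plates. Treatment: test compound, 48 hours, 5 concentrations. Analysis: linear interpolation between bracketing concentrations; unreached endpoints set to highest concentration. GI50 = concentration required for 50% inhibition of growth. TGI marks complete inhibition of growth.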 Where a SMILES comes first, the peptide text is derived from it. The star is where a group is joined. OBn = c1ccc(CO*)cc1

Assays:
Assay in all cases: NCI-60 cell line screen, 48 h
[1] = tested on: CCRF-CEM leukemia
[2] = tested on: MDA-N
[3] = tested on: 786-0 renal
[4] = tested on: A498 renal
[5] = tested on: A549 NSCLC
[6] = tested on: ACHN renal
[7] = tested on: CAKI-1 renal
[8] = tested on: COLO 205 colon
[9] = tested on: DU-145 prostate
[10] = tested on: EKVX NSCLC
[11] = tested on: HCC-2998 colon
[12] = tested on: HCT-116 colon
[13] = tested on: HCT-15 colon
[14] = tested on: HL-60(TB) leukemia
[15] = tested on: HOP-62 NSCLC
[16] = tested on: HOP-92 NSCLC
[17] = tested on: HS 578T breast
[18] = tested on: HT29 colon
[19] = tested on: IGROV1 ovarian
[20] = tested on: KM12 colon
[21] = tested on: LOX IMVI melanoma
[22] = tested on: M14 melanoma
[23] = tested on: MALME-3M melanoma
[24] = tested on: MCF7 breast
[25] = tested on: MDA-MB-231 breast
[26] = tested on: MDA-MB-435
[27] = tested on: NCI-H226 lung
[28] = tested on: NCI-H23 lung
[29] = tested on: NCI-H522 lung
[30] = tested on: NCI/ADR-RES ovarian
[31] = tested on: OVCAR-3 ovarian
[32] = tested on: OVCAR-4 ovarian
[33] = tested on: OVCAR-5 ovarian
[34] = tested on: OVCAR-8 ovarian
[35] = tested on: PC-3 prostate
[36] = tested on: RXF 393 renal
[37] = tested on: SF-268 CNS
[38] = tested on: SF-295 CNS
[39] = tested on: SF-539 CNS
[40] = tested on: SK-MEL-2 melanoma
[41] = tested on: SK-MEL-28 melanoma
[42] = tested on: SK-MEL-5 melanoma
[43] = tested on: SK-OV-3 ovarian
[44] = tested on: SN12C renal
[45] = tested on: SNB-19 CNS
[46] = tested on: SNB-75 CNS
[47] = tested on: SW-620 colon
[48] = tested on: T-47D breast
[49] = tested on: TK-10 renal
[50] = tested on: U251 CNS
[51] = tested on: UACC-257 melanoma
[52] = tested on: UO-31 renal
[53] = tested on: BT-549 breast
[54] = tested on: K-562 leukemia
[55] = tested on: MOLT-4 leukemia
[56] = tested on: NCI-H460 lung
[57] = tested on: RPMI-8226 leukemia
[58] = tested on: UACC-62 melanoma

CC(=O)NC(C(=O)N1CCCC1C(=O)OCc1ccccc1)C(C)C (stereo not drawn) (Ac-Val-Pro-OBn; configuration not given here)
GI50 [1]: 52 mg/L (≈ 150 µM) | GI50 [2]: 80.7 mg/L (≈ 233 µM)

CC(=O)NC(C)c1ccc(N=NN2CCCC2)cc1 (stereo not drawn)
TGI [3]: > 100 µM | TGI [4]: > 100 µM | TGI [5]: > 100 µM | TGI [6]: > 100 µM | TGI [7]: > 100 µM | TGI [1]: > 100 µM | TGI [8]: > 100 µM | TGI [9]: > 100 µM | TGI [10]: > 100 µM | TGI [11]: > 100 µM | TGI [12]: > 100 µM | TGI [13]: > 100 µM | TGI [14]: > 100 µM | TGI [15]: > 100 µM | TGI [16]: > 100 µM | TGI [17]: > 100 µM | TGI [18]: > 100 µM | TGI [19]: > 100 µM | TGI [20]: > 100 µM | TGI [21]: > 100 µM | TGI [22]: > 100 µM | TGI [23]: > 100 µM | TGI [24]: > 100 µM | TGI [25]: > 100 µM | TGI [26]: > 100 µM | TGI [2]: > 100 µM | TGI [27]: > 100 µM | TGI [28]: > 100 µM | TGI [29]: > 100 µM | TGI [30]: > 100 µM | TGI [31]: > 100 µM | TGI [32]: > 100 µM | TGI [33]: > 100 µM | TGI [34]: > 100 µM | TGI [35]: > 100 µM | TGI [36]: > 100 µM | TGI [37]: > 100 µM | TGI [38]: > 100 µM | TGI [39]: > 100 µM | TGI [40]: > 100 µM | TGI [41]: > 100 µM | TGI [42]: > 100 µM | TGI [43]: > 100 µM | TGI [44]: > 100 µM | TGI [45]: > 100 µM | TGI [46]: > 100 µM | TGI [47]: > 100 µM | TGI [48]: > 100 µM | TGI [49]: > 100 µM | TGI [50]: > 100 µM | TGI [51]: > 100 µM | TGI [52]: > 100 µM

CCC/C(Cl)=N\OC(=O)Nc1ccc(F)c([N+](=O)[O-])c1
TGI [3]: 40 µM | TGI [4]: 48.4 µM | TGI [5]: 66.4 µM | TGI [6]: 18.1 µM | TGI [53]: 22.4 µM | TGI [7]: 15.5 µM | TGI [1]: > 100 µM | TGI [8]: 12 µM | TGI [9]: 28.6 µM | TGI [10]: 29.9 µM | TGI [11]: 31.3 µM | TGI [12]: > 100 µM | TGI [13]: 34.8 µM | TGI [15]: 34.9 µM | TGI [16]: 31.7 µM | TGI [18]: 45.3 µM | TGI [19]: 28.7 µM | TGI [54]: > 100 µM | TGI [20]: 32.7 µM | TGI [21]: 66.8 µM | TGI [22]: 30.4 µM | TGI [23]: 22.8 µM | TGI [24]: 75.5 µM | TGI [25]: 36.8 µM | TGI [26]: 30.4 µM | TGI [2]: 47.6 µM | TGI [55]: 11.2 µM | TGI [27]: 55.7 µM | TGI [28]: 28.1 µM | TGI [56]: 34.9 µM | TGI [29]: 4.3 µM | TGI [30]: 36.6 µM | TGI [31]: 28.9 µM | TGI [32]: 28.9 µM | TGI [33]: 44.4 µM | TGI [34]: 31.3 µM | TGI [35]: 28.5 µM | TGI [57]: > 100 µM | TGI [37]: 29.2 µM | TGI [38]: > 100 µM | TGI [39]: 42.9 µM | TGI [40]: 27.3 µM | TGI [41]: 34.2 µM | TGI [42]: 35.2 µM | TGI [43]: 78.9 µM | TGI [44]: 72.2 µM | TGI [45]: 28.5 µM | TGI [46]: 33 µM | TGI [47]: 39.6 µM | TGI [49]: 32 µM | TGI [50]: 37.3 µM | TGI [51]: 34.2 µM | TGI [58]: 37.7 µM | TGI [52]: 26.6 µM
